“And” between values parts separate entries of the source, which are not always exact repeats. Identical values can stand only once.
What was measured:
[1] = target: T1, binding between the spike protein of SARS-CoV-2 and the ACE2 protein (Severe acute respiratory syndrome coronavirus 2, UniProt P0DTC2)
[2] = target: T1, binding between the spike protein of SARS-CoV-2 and the ACE2 protein; remark: listed apart in the source

[O][Cl+][O-] [Chlorine Dioxide, chlorine dioxide]
binding between the spike protein and the ACE2 protein [1]: significantly reduced
Luminescence Intensity (counts/sec × 1000, average ± standard deviation, n = 3) [2]: 1322 ± 45 counts/sec × 1000 and 1072 ± 47 counts/sec × 1000

Reference: US20230126569A1, “COMPOSITION FOR […] OF SARS-CoV-2 TO ACE2 PROTEIN” (priority 2020, published 2023)
